These results are taken from patent US8816084B1, “Crystals of morphinan derivative, manufacturing method thereof, and pharmaceutical composition using the same” (priority 2013, dated 2014).

Structures are written as SMILES.

The nature of the first series: pH Stability Test. The note with it: 100 mg solid dissolved in 10 ml deionized water, pH meter; hydrochloride. The series is classed as physicochemical. The protocol: First, 100 mg of the X-form crystal solid of Examples 1 to 3, and the amorphous solid of Comparative Examples 1-6 were dissolved in 10 ml of deionized water respectively. Then, pH value of the resulting solutions was measured with a pH meter (Type No: Mettler Toledo MP 250). The measurement results are shown in Table 3, wherein the result of the amorphous and A-form crystals of Comparative Examples 4-9 was quoted from U.S. Pat. No. 7,803,942B2.
`CN(C(=O)/C=C/c1ccoc1)[C@@H]1CC[C@@]2(O)[C@H]3Cc4ccc(O)c5c4[C@@]2(CCN3CC2CC2)[C@H]1O5.Cl` (relative stereo) [Comparative Example 2, 17-cyclopropylmethyl-3,14β-dihydroxy-4,5α-epoxy-6β-[N-methyl-trans-3-(3-furyl)acrylamido]morphinan hydrochloride] had a pH of 2.6.
Still for that read-out and setting: the figure for `CN(C(=O)/C=C/c1ccoc1)[C@@H]1CC[C@@]2(O)[C@H]3Cc4ccc(O)c5c4[C@@]2(CCN3CC2CC2)[C@H]1O5.Cl` (relative stereo) [Example 1, 17-cyclopropylmethyl-3,14β-dihydroxy-4,5α-epoxy-6β-[N-methyl-trans-3-(3-furyl)acrylamido]morphinan hydrochloride] is 3.5; for `CN(C(=O)/C=C/c1ccoc1)[C@@H]1CC[C@@]2(O)[C@H]3Cc4ccc(O)c5c4[C@@]2(CCN3CC2CC2)[C@H]1O5.Cl` (relative stereo) [Comparative Example 3, 17-cyclopropylmethyl-3,14β-dihydroxy-4,5α-epoxy-6β-[N-methyl-trans-3-(3-furyl)acrylamido]morphinan hydrochloride] it is 3.7; for `CN(C(=O)/C=C/c1ccoc1)[C@@H]1CC[C@@]2(O)[C@H]3Cc4ccc(O)c5c4[C@@]2(CCN3CC2CC2)[C@H]1O5.Cl` (relative stereo) [Example 2, 17-cyclopropylmethyl-3,14β-dihydroxy-4,5α-epoxy-6β-[N-methyl-trans-3-(3-furyl)acrylamido]morphinan hydrochloride] it is 3.6.
With `CN(C(=O)/C=C/c1ccoc1)[C@@H]1CC[C@@]2(O)[C@H]3Cc4ccc(O)c5c4[C@@]2(CCN3CC2CC2)[C@H]1O5.Cl` (relative stereo) [Comparative Example 1, 17-cyclopropylmethyl-3,14β-dihydroxy-4,5α-epoxy-6β-[N-methyl-trans-3-(3-furyl)acrylamido]morphinan hydrochloride], the pH is listed as 4.4.
Molecule `CN(C(=O)/C=C/c1ccoc1)[C@@H]1CC[C@@]2(O)[C@H]3Cc4ccc(O)c5c4[C@@]2(CCN3CC2CC2)[C@H]1O5.Cl` (relative stereo) [Example 3, 17-cyclopropylmethyl-3,14β-dihydroxy-4,5α-epoxy-6β-[N-methyl-trans-3-(3-furyl)acrylamido]morphinan hydrochloride] came in with a pH of 3.6.

Experiment in a further series: not given
The conditions noted are these: result quoted from U.S. Pat. No. 7,803,942B2; hydrochloride; cited from earlier work.
Turning to `CN(C(=O)/C=C/c1ccoc1)[C@@H]1CC[C@@]2(O)[C@H]3Cc4ccc(O)c5c4[C@@]2(CCN3CC2CC2)[C@H]1O5.Cl` (relative stereo) [Comparative Example 5, 17-cyclopropylmethyl-3,14β-dihydroxy-4,5α-epoxy-6β-[N-methyl-trans-3-(3-furyl)acrylamido]morphinan hydrochloride], the pH is given as 4.7.
Regarding `CN(C(=O)/C=C/c1ccoc1)[C@@H]1CC[C@@]2(O)[C@H]3Cc4ccc(O)c5c4[C@@]2(CCN3CC2CC2)[C@H]1O5.Cl` (relative stereo) [Comparative Example 9, 17-cyclopropylmethyl-3,14β-dihydroxy-4,5α-epoxy-6β-[N-methyl-trans-3-(3-furyl)acrylamido]morphinan hydrochloride], the pH is listed as 5.6.
Turning to `CN(C(=O)/C=C/c1ccoc1)[C@@H]1CC[C@@]2(O)[C@H]3Cc4ccc(O)c5c4[C@@]2(CCN3CC2CC2)[C@H]1O5.Cl` (relative stereo) [Comparative Example 6, 17-cyclopropylmethyl-3,14β-dihydroxy-4,5α-epoxy-6β-[N-methyl-trans-3-(3-furyl)acrylamido]morphinan hydrochloride], the pH is on record as 3.5.
For the molecule `CN(C(=O)/C=C/c1ccoc1)[C@@H]1CC[C@@]2(O)[C@H]3Cc4ccc(O)c5c4[C@@]2(CCN3CC2CC2)[C@H]1O5.Cl` (relative stereo) [Comparative Example 8, 17-cyclopropylmethyl-3,14β-dihydroxy-4,5α-epoxy-6β-[N-methyl-trans-3-(3-furyl)acrylamido]morphinan hydrochloride], the pH is 5.4.
On to `CN(C(=O)/C=C/c1ccoc1)[C@@H]1CC[C@@]2(O)[C@H]3Cc4ccc(O)c5c4[C@@]2(CCN3CC2CC2)[C@H]1O5.Cl` (relative stereo) [Comparative Example 4, 17-cyclopropylmethyl-3,14β-dihydroxy-4,5α-epoxy-6β-[N-methyl-trans-3-(3-furyl)acrylamido]morphinan hydrochloride], for which the pH is reported as 3.7.
Regarding `CN(C(=O)/C=C/c1ccoc1)[C@@H]1CC[C@@]2(O)[C@H]3Cc4ccc(O)c5c4[C@@]2(CCN3CC2CC2)[C@H]1O5.Cl` (relative stereo) [Comparative Example 7, 17-cyclopropylmethyl-3,14β-dihydroxy-4,5α-epoxy-6β-[N-methyl-trans-3-(3-furyl)acrylamido]morphinan hydrochloride], the pH is on record as 5.8.
